Test results taken from PMC11799985 (ACS Omega, 2024).
“Also recorded” adds a separate entry of the source. Read-outs that look alike come from different tables or passages of the source.

Biological target: T1, TbSir2rp1 (Trypanosoma brucei brucei, UniProt Q57V41)
T1 construct: The TbSir2rp1 gene was cloned into the pET24(+) expression plasmid (Novagen); His tag; made in house; host or cells: Escherichia coli BL21-Codon Plus (DE3)-RIL
T1 sequence (Q57V41 1-351): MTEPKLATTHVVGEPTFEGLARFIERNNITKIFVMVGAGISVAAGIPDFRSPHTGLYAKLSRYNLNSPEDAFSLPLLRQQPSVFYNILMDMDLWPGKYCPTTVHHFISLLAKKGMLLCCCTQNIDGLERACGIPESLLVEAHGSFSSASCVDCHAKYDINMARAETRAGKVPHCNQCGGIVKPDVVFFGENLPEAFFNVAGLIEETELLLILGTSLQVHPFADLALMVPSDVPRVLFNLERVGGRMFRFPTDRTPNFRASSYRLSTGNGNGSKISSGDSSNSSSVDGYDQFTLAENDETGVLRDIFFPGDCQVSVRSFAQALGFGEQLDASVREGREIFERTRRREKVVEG
Experiment: biochemical
Conditions: for ligand efficiency (LE): LE = –R·T·ln(IC50)/HAC, from TbSir2rp1 IC50; for IC50: enzyme 1 μM, NAD+ 100 μM, acetylated peptide 50 μM, 37 °C, 2 h; for Hill coefficient (nH): concentration–response curve against TbSir2rp1
Experimental: The acetylated peptide corresponds to the sequence Abz-Gly-Pro-acetylLys-SerGln–EDDnp, where Abz is ortho-aminobenzoic acid and EDDnp is N-[2,4-dinitrophenyl]ethylenediamine.
To halt the deacetylation reaction, 4 mM nicotinamide was used. For each pair of wells in the 96-well plate, 0.2 mg/mL of trypsin was added to only one well to hydrolyze the acetylated peptide, enabling fluorescence emission. Fluorescence was measured immediately at 420 nm with excitation at 320 nm using a SpectraMax M2 microplate reader (Molecular Devices).
Deacetylation activity was determined by the difference between the well where trypsin was added and the well without trypsin. All assays were performed in triplicate, and activity values were reported as means ± standard deviations with outliers identified and excluded from the calculations. Statistical analyses were conducted using Prism 7 software (GraphPad).
The screening of the 90 fragments was performed at a single concentration of 500 μM in triplicate. The enzyme was used at 1 μM, and the substrates NAD^+ and acetylated peptide were used at 100 and 50 μM, respectively. Incubation was carried out at 37.0 °C for 2 h. Each fragment was added to a pair of wells, with trypsin being added to only one well, as previously described for inhibitory activity calculation. […] Ligand efficiency (LE) was calculated as LE = –R·T·ln(IC50)/HAC using IC50 values instead of KD for comparison. […] The inhibition mechanism was characterized using Lineweaver–Burk plots under five concentrations of each substrate and three concentrations of the fragment. IC50 values were determined with at least seven different concentrations, and Lineweaver–Burk analysis used six concentrations.

[1] = read-out: % Inhibition TbSir2rp1, Table S2, complete fragment library, single concentration of 500 μM
[2] = read-out: % Inhibition TbSir2rp1 at 500 μM, Table 1, fragment 500 μM, triplicate, mean ± SD

## C(=N\c1nncs1)/c1ccc(Sc2ccccc2)cc1
[1]
  inhibition at 500 µM: 38 ± 1.7%

## C(=N\c1nnc(Cc2ccccc2)o1)/c1ccccc1
[1]
  inhibition at 500 µM: 41 ± 12%

## CS(=O)(=O)Nc1cccc(-c2nc3ccccc3[nH]2)c1
[1]
  inhibition at 500 µM: -0.8 ± 4.1%

## Nc1cc2nc(-c3cccc(C(F)(F)F)c3)cn2cn1
[1]
  inhibition at 500 µM: 19 ± 28%

## O=C1C(O)=C(Nc2ccc(F)cc2)C(=O)c2ccccc21
[1]
  inhibition at 500 µM: 71 ± 23%

## Cc1cccc(C)c1NC1=C(O)C(=O)c2ccccc2C1=O
[1]
  inhibition at 500 µM: 39 ± 4.6%

## CC(C)NCC1CCc2cc(CO)c([N+](=O)[O-])cc2N1 (stereo not drawn)
read-out: % Inhibition TbSir2rp1
  inhibition at 500 µM: 24 ± 7.9%

## Cc1cn([C@H]2C[C@H](N=[N+]=[N-])[C@@H](CO)O2)c(=O)[nH]c1=O
[1]
  inhibition at 500 µM: 8.2 ± 1.4%

## CN1C(=O)CN=C(c2ccccc2)c2cc(Cl)ccc21
[1]
  inhibition at 500 µM: 37 ± 2.2%

## NC(=O)c1ncn([C@@H]2O[C@H](CO)[C@@H](O)[C@H]2O)n1
[1]
  inhibition at 500 µM: -11 ± 11%

## c1ccc(C2CN3CCSC3=N2)cc1 (stereo not drawn) [C12=NC(C3=CC=CC=C3)CN1CCS2]
[1]
  inhibition at 500 µM: 10 ± 1.4%

## C/C(=N\NC(N)=O)c1ccncc1 [C/C(C1=CC=NC=C1)=N\NC(N)=O]
[1]
  inhibition at 500 µM: 31 ± 13%

## Cc1oc2ncccc2c1C(=O)O [CC1=C(C(O)=O)C2=C(O1)N=CC=C2]
[1]
  inhibition at 500 µM: 19 ± 17%

## CCOC(=O)c1c(C)oc2nc(Cl)ccc12 [CC1=C(C(OCC)=O)C2=C(O1)N=C(Cl)C=C2]
[1]
  inhibition at 500 µM: -29 ± 18%

## CCOC(=O)c1c(C)oc2ncc(Br)cc12 [CC1=C(C(OCC)=O)C2=C(O1)N=CC(Br)=C2]
[1]
  inhibition at 500 µM: -7.1 ± 9.1%

## CCOC(=O)c1c(C)oc2ncccc12 [CC1=C(C(OCC)=O)C2=C(O1)N=CC=C2]
[1]
  inhibition at 500 µM: -29 ± 12%

## CCOC(=O)c1c(C)oc2c1ccc[n+]2[O-] [CC1=C(C(OCC)=O)C2=C(O1)[N+]([O-])=CC=C2]
[1]
  inhibition at 500 µM: -2.9 ± 10%

## Cc1ccc(S(=O)(=O)n2ncc3ccccc32)cc1 [CC1=CC=C(S(N2N=CC3=C2C=CC=C3)(=O)=O)C=C1]
[1]
  inhibition at 500 µM: 4 ± 30%

## Cc1ccc(S(=O)(=O)n2cccn2)cc1 [CC1=CC=C(S(N2N=CC=C2)(=O)=O)C=C1]
[1]
  inhibition at 500 µM: 8.4 ± 20%

## Cc1ncc([N+](=O)[O-])n1CCO [CC1=NC=C([N+]([O-])=O)N1CCO]
[1]
  inhibition at 500 µM: 14 ± 3.1%

## CC(C)Cc1ccc(C(C)C(=O)O)cc1 (stereo not drawn) [CC(C1=CC=C(CC(C)C)C=C1)C(O)=O]
[1]
  inhibition at 500 µM: -2.1 ± 0.21%

## CC(C)(Oc1ccc(C2CC2(Cl)Cl)cc1)C(=O)O (stereo not drawn) [CC(C)(OC1=CC=C(C2C(Cl)(Cl)C2)C=C1)C(O)=O]
[1]
  inhibition at 500 µM: 4.9 ± 4.7%

## CCOc1ccc(NC(C)=O)cc1 [CC(NC1=CC=C(OCC)C=C1)=O]
[1]
  inhibition at 500 µM: -5.5 ± 1.5%

## CC(=O)Nc1ccccc1 [CC(NC1=CC=CC=C1)=O]
[1]
  inhibition at 500 µM: 7.7 ± 21%

## CCOC1NN=C(c2ccccc2)N1 (stereo not drawn) [CCOC1NC(C2=CC=CC=C2)=NN1]
[1]
  inhibition at 500 µM: -3.3 ± 1.9%

## COc1cc(C)c(NC(C)=O)cn1 [COC1=NC=C(NC(C)=O)C(C)=C1]
[1]
  inhibition at 500 µM: 1.6 ± 13%

## COc1cc2cn[nH]c2cn1 [COC1=NC=C(NN=C2)C2=C1]
[1]
  inhibition at 500 µM: 56 ± 15%

## CS(=O)(=O)Nc1cccc(-c2ccccc2)c1 [CS(NC1=CC=CC(C2=CC=CC=C2)=C1)(=O)=O]
[1]
  inhibition at 500 µM: 35 ± 3.7%

## CN[C@@H](C)[C@H](O)c1ccccc1 [C[C@H](NC)[C@@H](C1=CC=CC=C1)O]
[1]
  inhibition at 500 µM: 23 ± 6.4%

## O=S(=O)(c1ccc(Cl)cc1)c1ccc(Cl)cc1 [ClC1=CC=C(S(C2=CC=C(Cl)C=C2)(=O)=O)C=C1]
[1]
  inhibition at 500 µM: 44 ± 12%

## CC(=O)n1ncc2cc(Cl)ncc21 [ClC1=NC=C(N(C(C)=O)N=C2)C2=C1]
[1]
  inhibition at 500 µM: 19 ± 9.9%

## Cc1cc(Cl)ncc1N [ClC1=NC=C(N)C(C)=C1]
[1]
  inhibition at 500 µM: 8.8 ± 19%

## Nc1ccc(C(=O)c2ccccc2)cc1 [Fragment 1.2]
  ligand efficiency (LE): 0.37
  Hill coefficient (nH): 0.72
TbSir2rp1, read-out: IC50
  IC50: 80.9 µM
For both substrates, acetylated peptide and NAD+
  inhibition mechanism (Lineweaver–Burk plot): competitive

## Sc1nc2ccccc2s1 [Fragment 1.3]
IC50, TbSir2rp1
  IC50: 125 µM
  ligand efficiency (LE): 0.54
  Hill coefficient (nH): 1.04

## CCOc1ccc2nc(N)sc2c1 [Fragment 1.4]
  inhibition of TbSir2rp1 (in words): did not inhibit; also recorded: No inhibition

## Nc1ccc(Nc2ccccc2)cc1 [Fragment 1.5]
TbSir2rp1, read-out: IC50
  IC50: > 500 µM

## CCc1[nH][nH]c(=O)c1-c1cccnc1O [Fragment 3]
  ligand efficiency (LE): 0.37
  Hill coefficient (nH): 1.77
[1]
  inhibition at 500 µM: 88 ± 14%
[2]
  inhibition at 500 µM: 88.3 ± 14.2%

## CN(C)c1ccc(/C=N/c2nnc(-c3ccccc3)o2)cc1 [Fragment 4]
  ligand efficiency (LE): 0.25
  Hill coefficient (nH): 1.10
TbSir2rp1, read-out: IC50
  IC50: 94.4 µM
[1]
  inhibition at 500 µM: 78 ± 2.3%
[2]
  inhibition at 500 µM: 78.4 ± 2.3%

## O=c1ccc2ccccc2[nH]1 [Fragment 6]
  ligand efficiency (LE): 0.41
  Hill coefficient (nH): 1.19
[1]
  inhibition at 500 µM: 60 ± 5.5%
[2]
  inhibition at 500 µM: 59.7 ± 5.5%

## Clc1cc2cn[nH]c2cn1 [Fragment 7]
[1]
  inhibition at 500 µM: 61 ± 9.1%
[2]
  inhibition at 500 µM: 60.6 ± 9.1%

## O=C1Cc2cnccc2CN1 [Fragment 8]
[1]
  inhibition at 500 µM: 55 ± 4.8%
[2]
  inhibition at 500 µM: 55.5 ± 4.8%

## Cc1ccc(S(=O)(=O)N(C)/N=C/c2cccs2)cc1 [Fragment 9]
[1]
  inhibition at 500 µM: 65 ± 1.7%
[2]
  inhibition at 500 µM: 64.8 ± 1.7%

## N=C(N)N/N=C/c1cccs1 [Fragment 10]
[1]
  inhibition at 500 µM: 56 ± 4.9%
[2]
  inhibition at 500 µM: 55.7 ± 4.9%

## O=C(/C=C/c1ccccc1Cl)c1ccc2c(c1)OCO2 [Fragment 12]
[1]
  inhibition at 500 µM: 102 ± 5.9%
[2]
  inhibition at 500 µM: 102 ± 5.9%

## O=C1C(O)=C(Nc2ccccc2)C(=O)c2ccccc21 [Fragment 13]
[1]
  inhibition at 500 µM: 95 ± 4.9%
[2]
  inhibition at 500 µM: 95.3 ± 4.9%

## C1CN2CCN1CC2 [N1(CC2)CCN2CC1]
[1]
  inhibition at 500 µM: 2.7 ± 2.6%

## NC(N)=NS(=O)(=O)c1ccc(N)cc1 [N/C(N)=N\S(=O)(C1=CC=C(N)C=C1)=O]
[1]
  inhibition at 500 µM: 1.8 ± 1.9%

## N/C(=N/c1ccccc1)Nc1ccccc1 [N/C(NC1=CC=CC=C1)=N/C2=CC=CC=C2]
[1]
  inhibition at 500 µM: 2.6 ± 1.1%

## Nc1ccc(S(=O)(=O)c2ccc(N)cc2)cc1 [NC1=CC=C(S(C2=CC=C(N)C=C2)(=O)=O)C=C1]
[1]
  inhibition at 500 µM: 48 ± 4.1%

## Nc1cccc([N+](=O)[O-])c1 [NC1=CC=CC([N+]([O-])=O)=C1]
[1]
  inhibition at 500 µM: 27 ± 0.91%

## Nc1nnc(-c2ccccc2)o1 [NC1=NN=C(O1)C2=CC=CC=C2]
[1]
  inhibition at 500 µM: 16 ± 0.61%

## NNC(=O)/C=C/c1ccccc1 [NNC(/C=C/C1=CC=CC=C1)=O]
[1]
  inhibition at 500 µM: 42 ± 8.5%

## NNS(=O)(=O)c1ccc(Cl)cc1 [NNS(=O)(C1=CC=C(Cl)C=C1)=O]
[1]
  inhibition at 500 µM: 37 ± 24%

## Cc1ccc(S(=O)(=O)NN)cc1 [NNS(C1=CC=C(C)C=C1)(=O)=O]
[1]
  inhibition at 500 µM: 53 ± 5.2%

## CC1(C)CCC2=C(O1)c1ccccc1C(=O)C2=O [O=C1C2=C(OC(C)(C)CC2)C3=CC=CC=C3C1=O]
[1]
  inhibition at 500 µM: 43 ± 5.2%

## O=C1NCCn2cccc21 [O=C1C2=CC=CN2CCN1]
[1]
  inhibition at 500 µM: -35 ± 5%

## O=C1CCSc2nc(-c3ccccc3)nn21 [O=C1CCSC2=NC(C3=CC=CC=C3)=NN21]
[1]
  inhibition at 500 µM: 3 ± 1.7%

## O=C1Nc2ccccc2C1=O [O=C1NC2=C(C=CC=C2)C1=O]
[1]
  inhibition at 500 µM: 49 ± 0.31%

## O=c1[nH]nc(-c2ccccc2)[nH]1 [O=C1NC(C2=CC=CC=C2)=NN1]
[1]
  inhibition at 500 µM: 0.91 ± 7.3%

## O=C1NC(=O)C(c2ccccc2)(c2ccccc2)N1 [O=C1NC(C(C2=CC=CC=C2)(C3=CC=CC=C3)N1)=O]
[1]
  inhibition at 500 µM: 52 ± 2.3%
